From patent publication US10282841B1, “Bioinformatic analysis of vascular patterning” (The United States of America as Represented by the …, priority 2011, dated 2019)
Like-named read-outs stand apart in the source and are kept apart here.

Assays:
[1] = tested on: avian chorioallantoic membrane; assay type: in vivo
Text: To develop the VESGEN system mapping capabilities, proangiogenesis and antiangiogenesis factors were first studied in the avian chorioallantoic membrane, a well-established, experimentally convenient 2D, optically accessible model of microvascular remodeling, angiogenesis and angiogenesis therapeutics.

blood vessels = assay: VESGEN analysis of regulators of blood vessel growth by vessel branching generation; assay type: in vivo; settings: for vessel number, density or diameter for larger pre-existing vessels: larger pre-existing vessels of G1-G4
Text: The stimulator bFGF and inhibitor TGF-beta1 may be regarded as robust but simple regulators of blood vessel growth, because of their selective regulation of the growth of new small vessels. Other important regulators like vascular endothelial growth factor-165 (VEGF-165), also known as vascular permeability factor (VPF), are more complex in their regulatory activities. […] All healthy and unhealthy (abnormal) fluid shifts in the body are tightly regulated by the small vessels (vascular and lymphatic capillaries) except during trauma such as flesh wounds. The VESGEN system may support analysis of such retinal and brain vascular changes mediating the fluid shifts from images of experimental animals and clinical diagnostic images of humans.

[2] = chorioallantoic membrane, with higher concentrations

In the case of angiostatin, the “vascular morphology on inhibition of angiogenesis” value ([1]; avian chorioallantoic membrane) is reported as “rendered the vascular tree highly abnormal and irregular”.
With basic fibroblast growth factor [bFGF] the “growth of small vessels” value ([1]; avian chorioallantoic membrane) was “stimulated specifically the robust growth of many small vessels”, the “vessel number, density or diameter for larger pre-existing vessels” value (blood vessels) was “did not affect” and the “growth of new small vessels of vessel generation G5 and greater” value (“growth … of vessel generation G5 and greater” for short) (blood vessels) was “stimulation of the growth of new small vessels of vessel generation G5 and greater”.
For “transforming growth factor beta-1 [transforming growth factor (TGF) β-1]”, the “vascular morphology on inhibition of angiogenesis” value ([1]; avian chorioallantoic membrane) was “retained a normal vascular morphology”, the “vessel number, density or diameter for larger pre-existing vessels” value (blood vessels) was “did not affect” and the “growth … of vessel generation G5 and greater” value (blood vessels) was “inhibition of the growth of new small vessels of vessel generation G5 and greater”.
For “vascular endothelial growth factor-165 [VEGF]”, the “diameter of larger vessels” value ([1]; avian chorioallantoic membrane, at high concentrations) was “significantly dilated”, the “growth of new small vessels” value ([1]; avian chorioallantoic membrane, at low concentrations) was “stimulated the growth of new small vessels” and the vessel density ([1]; chorioallantoic membrane, at low concentrations) was “increased”. The “diameters of larger arteries” value [1, 2] was “increasing diameters of larger arteries”, the vessel density [1, 2] was “progressively decreasing vessel density” and the “vessel leakage, vessel swelling and vessel tortuosity” value (blood vessels; blood vessel morphology) was “induction of vessel leakage, vessel swelling and vessel tortuosity”. The “growth and swelling of the associated lymphatic vascular system” value (blood vessels; lymphatic vascular system) was “stimulates the growth and swelling of the associated lymphatic vascular system” and the “growth … of vessel generation G5 and greater” value (blood vessels) was “stimulation of the growth of new, small blood vessels”.
